Results: US9717745B2, “Pharmaceutical compositions and their use for treatment of cancer and autoimmune diseases” (ZHEJIANG DTRM BIOPHARMA CO. LTD., priority 2015, dated 2017)
Where two headings read alike, the source gives them in different places. Marks after values point to notes of the source that are not given here.

Columns and labels:
WSU-DLCL2 tumor cells [1] = assay: Inhibition of tumor growth in vivo, resistant WSU-DLCL2 xenograft SCID mouse model; set-up: species or system mice; details: FIG. 8
Description: (§1) Inhibition Study of Tumor Growth In Vivo:
(§2) SCID mice or nude mice (weighing about 18 g at the beginning of the experiment) were randomly divided into groups by the software in order to achieve close average weights between groups and control the bias within the allowable range. The mice were injected BTK cell lines (TMD-8, WSU-DLCL2 and DoHH-2) for tumor formation. Inhibitors were administered orally once or twice a day, a total of 14 days, 21 days or 28 days. Body weights and tumor volume were recorded.
(§3) Xenograft Tumor Models Inoculated with TMD-8, or DoHH2, or WSU-DLCL2 Tumor Cell Lines:
(§4) TMD-8 is a sensitive human diffuse large B-cell lymphoma cell line, and DoHH2 is a more difficult to treat human follicular lymphoma cell line, while WSU-DLCL2 is a multi-drug resistant (MDR) human non-Hodgkin's lymphoma cell line.
The TMD-8, DoHH2, WSU-DLCL2 tumor cells were maintained in vitro as a suspension culture in RPMI-1640 medium supplemented with 10% heat inactivated fetal calf serum at 37° C. in an atmosphere of 5% CO2 in air. The tumor cells were routinely subcultured twice weekly. The cells growing in an exponential growth phase were harvested and counted for tumor inoculation. […] Animal body weight and tumor volume were measured every 2- or 3-days throughout the treatment.

[2] = Adjuvant-induced arthritis (AA/AIA) model in female Lewis rats; assay type: in vivo; details: for Paw volume of AA rats model (in words): FIG. 13; for Paw volume (Mean): 11 (3 mg/kg) BID positive control, oral from day 13
Description: Adjuvant-Induced Arthritis AA Model:
The combination of Compounds 3 and 14 was evaluated in adjuvant-induced arthritis (AA) model in female Lewis rats. All rats except the normal group were immunized with complete Freund's adjuvant (CFA) subcutaneously at the left hind paw to induce arthritis at day 0. At 6 days post immunization, some rats started to display clinical symptoms of arthritis, e.g. erythema and swelling. […] The treatments were given orally for 3 consecutive weeks. The body weight, paw volume and clinical score were monitored every other day after day 13 throughout the course of the study. At the terminal point, right hind paws were collected for histopathology analysis with H.E. staining.

[3] = Collagen-induced arthritis (CIA) model in male DBA/1 mice; assay type: in vivo; set-up: Clinical Score (Mean) / Pathological score: Inflammatory cell infiltration / Pathological score: Pannus growth / Pathological score: Cartilage injury / Pathological score: Bone resorption / Pathological score: Total: scale not given here; details: for Clinical score of CIA mice model (in words): FIG. 15; for Clinical Score (Mean): Dexamethasone 0.2 mg/kg
Description: Collagen-Induced Arthritis (CIA) Model:
The combination of Compounds 3 and 12 was evaluated in collagen induced arthritis (CIA) mouse model in Male DBA/1 mice. The animals were divided into 8 groups, including a normal, a vehicle, […] treatment groups: All animals (except the normal group) were immunized with 200 μg of bovine collagen (type II) on day 0 and day 21. Seven days (day 28) after boosting immunization, animals started to show symptoms of disease with an average clinical score around 1. […] The treatments were given orally for 2 consecutive weeks. Body weight and clinical score were monitored through the study (recorded three times a week started after second immunization). At the end of the study, animals were euthanized and both hind paws were collected for histopathology analysis.

TMD-8 cell line = assay: Inhibition assay of tumor cell activity (cell viability), TMD-8; assay type: cell-based, human; details: 48 hours incubation
Description: Inhibition Assay of Tumor Cell Activity:
Tumor cells (TMD-8, DoHH2 and WSU-DLCL2) were transferred and attached to 96-well plates. After one night, blank buffer and selected concentrations (0.01 nM-100 μM) of the test compound solution were added. After 48 hours incubation, CellTiter-Go was added to lyse the cells. Recording luminescent signal and calculate the percent inhibition of cell viability.

TMD-8 tumor cells = assay: Inhibition of tumor growth in vivo, TMD-8 lymphoma xenograft SCID mouse model; details: TMD-8 mice model, oral
Description: as §1, §2, §3
as §4, with “line. Drug combination therapies provide better efficacies in all three tumor models than single targeted agent alone.” for “line.”
The TMD-8, DoHH2, WSU-DLCL2 tumor cells were maintained in vitro as a suspension culture in RPMI-1640 medium supplemented with 10% heat inactivated fetal calf serum at 37° C. in an atmosphere of 5% CO2 in air. The tumor cells were routinely subcultured twice weekly. The cells growing in an exponential growth phase were harvested and counted for tumor inoculation. Each mouse was inoculated subcutaneously at the right flank with the tumor cells (10×10^6) in 0.2 ml of PBS with Matrigel (1:1) for tumor development. The treatments were started after the average tumor size reached approximately 100-200 mm^3. Each group consisted of 6-10 tumor-bearing mice. The testing article (vehicle, compound or combination) was orally administrated to the mice according to the predetermined doses for 14-days or 21-days. Animal body weight and tumor volume were measured every 2- or 3-days throughout the treatment.

[4] = Collagen-induced arthritis (CIA) model in male DBA/1 mice; assay type: in vivo; set-up: scale not given here; details: CIA study, 14 alone, 0.15 mg/kg QD, Mean ± SEM
WSU-DLCL2 tumor cells [5] = details: oral gavage to mice, 480 mg/kg/day, Knutson et al. 2014, cited from earlier work
[6] = AA study, 11, 3 mg/kg, Mean ± SEM
[7] = CIA study, Left hind paw, Dexamethasone 0.2 mg/kg QD, Mean ± SEM
[8] = CIA study, Right hind paw, Dexamethasone 0.2 mg/kg QD, Mean ± SEM

SMILES: C=CC(=O)N1CC[C@@H](n2nc(-c3ccc(Oc4c(F)c(F)cc(F)c4F)cc3F)c3c(N)ncnc32)C1 [Compound 3, 1-((R)-3-(4-amino-3-(2-fluoro-4-(2,3,5,6-tetrafluorophenoxy)phenyl)-1H-pyrazolo[3,4-d]pyrimidin-1-yl)pyrrolidin-1-yl)prop-2-en-1-one]
- Efficacy in WSU-DLCL2 non-Hodgkin's lymphoma mice model (in words) (WSU-DLCL2 tumor cells [1]): in line with the efficacy of Ibrutinib
- Paw volume of AA rats model (in words) [2]: treatment effects are absent
- Clinical score of CIA mice model (in words) [3]: treatment effects are absent

SMILES: CN(Cc1cnc2nc(N)nc(N)c2n1)c1ccc(C(=O)N[C@@H](CCC(=O)O)C(=O)O)cc1 [Compound 18, Methotrexate]
- Inhibition of individual compound on TMD-8 cell line (Inh %) AVG (TMD-8 cell line; 0.01 uM): −8.45%
- Inhibition of individual compound on TMD-8 cell line (Inh %) AVG (TMD-8 cell line; 0.1 uM): 32.04%
- Inhibition of individual compound on TMD-8 cell line (Inh %) AVG (TMD-8 cell line; 1 uM): 39.55%

SMILES: CO[C@H]1C[C@@H]2CC[C@@H](C)[C@@](O)(O2)C(=O)C(=O)N2CCCC[C@H]2C(=O)O[C@H]([C@H](C)C[C@@H]2CC[C@@H](OCCO)[C@H](OC)C2)CC(=O)[C@H](C)/C=C(\C)[C@@H](O)[C@@H](OC)C(=O)[C@H](C)C[C@H](C)/C=C/C=C/C=C/1C [Compound 14, Everolimus]
- Days of treatment to tumor disappearance / complete tumor regression (TMD-8 tumor cells): 15 days
- Tumor disappearance (in words) (TMD-8 tumor cells): complete disappearance of tumor grafts
- Tumor rebound after treatment was stopped (TMD-8 tumor cells): tumor rebounded
- Tumor rebound after treatment was stopped (TMD-8 tumor cells; listed as Everolimus): quickly rebounded
- Pathological score: Bone resorption ([2]; AA study, 14 alone, 0.5 mg/kg, Mean ± SEM): 3.5 ± 0.17
- Paw volume of AA rats model (in words) [2]: treatment effects are absent
- Clinical score of CIA mice model (in words) [3]: treatment effects are absent
- Pathological score: Bone resorption ([4]; Left hind paw): 1.80 ± 0.61
- Pathological score: Bone resorption ([4]; Right hind paw): 2.00 ± 0.67

SMILES: C[C@@H]1CCN(C(=O)CC#N)C[C@@H]1N(C)c1ncnc2[nH]ccc12 [Compound 11, Tofactinib]
- Inhibition of individual compound on TMD-8 cell line (Inh %) AVG (TMD-8 cell line; 0.01 uM): 6.02%
- Inhibition of individual compound on TMD-8 cell line (Inh %) AVG (TMD-8 cell line; 0.1 uM): 1.31%
- Inhibition of individual compound on TMD-8 cell line (Inh %) AVG (TMD-8 cell line; 1 uM): 6.66%
- Pathological score: Bone resorption [2, 6]: 0.5 ± 0.22
- Pathological score: Cartilage injury [2, 6]: 0.2 ± 0.20
- Pathological score: Inflammatory cell infiltration [2, 6]: 1.9 ± 0.18
- Pathological score: Pannus growth [2, 6]: 0.4 ± 0.22
- Pathological score: Total [2, 6]: 3.0 ± 0.73
- Paw volume (Mean) ([2]; Day 0): 1.00 mL
- Paw volume (Mean) ([2]; Day 17): 1.54*** mL
- Paw volume (Mean) ([2]; Day 26): 1.37*** mL
- Paw volume (Mean) ([2]; Day 28): 1.33*** mL
- Paw volume (Mean) ([2]; Day 31): 1.23*** mL
- Paw volume (Mean) ([2]; Day 33): 1.23*** mL

SMILES: CCN(c1cc(-c2ccc(CN3CCOCC3)cc2)cc(C(=O)NCc2c(C)cc(C)[nH]c2=O)c1C)C1CCOCC1 [EPZ-6438]
- Tumor growth inhibition in WSU-DLCL tumor model (in words) (WSU-DLCL2 tumor cells [5]): achieved a similar effect
- Tumor growth inhibition in WSU-DLCL tumor model (in words) (WSU-DLCL2 tumor cells [5]; listed as EZ-6438): inhibited tumor growth

SMILES: C[C@@H]1C[C@H]2[C@@H]3CCC4=CC(=O)C=C[C@]4(C)[C@@]3(F)[C@@H](O)C[C@]2(C)[C@@]1(O)C(=O)CO [Dexamethasone]
- Pathological score: Total ([3]; CIA study, Dexamethasone 0.2 mg/kg QD, Mean ± SEM): 0.00 ± 0.00
- Pathological score: Bone resorption [3, 7]: 0.00 ± 0.00
- Pathological score: Cartilage injury [3, 7]: 0.00 ± 0.00
- Pathological score: Inflammatory cell infiltration [3, 7]: 0.00 ± 0.00
- Pathological score: Pannus growth [3, 7]: 0.00 ± 0.00
- Pathological score: Bone resorption [3, 8]: 0.00 ± 0.00
- Pathological score: Cartilage injury [3, 8]: 0.00 ± 0.00
- Pathological score: Inflammatory cell infiltration [3, 8]: 0.00 ± 0.00
- Pathological score: Pannus growth [3, 8]: 0.00 ± 0.00
- Clinical Score (Mean) ([3]; CIA study, day 21 after first immunization): 0.00
- Clinical Score (Mean) ([3]; CIA study, day 32): 0.60***
- Clinical Score (Mean) ([3]; CIA study, day 39): 0.40***
- Clinical Score (Mean) ([3]; CIA study, day 42): 0.20***
